In brackets after ≈: the same amount, converted by molar mass. Like-named read-outs stand apart in the source and are kept apart here.
Tests used:
[1] = tested on: Escherichia coli NIHJ JC-2; experiment: In vitro antibacterial activity, two-fold agar-plate dilution method; format: cell-based; settings: NIHJJC2, HI-agar, 37° C., 20 hours
Protocol: (§1) In vitro antibacterial activity was determined by the two-fold agar-plate dilution method as described below.
(§2) One loopful of an overnight culture of each test strain in Trypticase-soy broth (10^8 viable cells per ml.) was streaked on heart infusion agar (HI-agar) containing-graded concentrations of antibiotics, and the minimal inhibitory concentration (MIC) was expressed in terms of μg/ml. after incubation at 37° C. for 20 hours.

[2] = tested on: Klebsiella pneumoniae 417; experiment: as above; format: cell-based
Protocol: as §1, §2

Proteus mirabilis 525 = experiment: as above; format: cell-based; settings: HI-agar, 37° C., 20 hours
Protocol: as §1, §2

Escherichia coli 100 [3] = experiment: MIC of strain used in the mouse infection test; format: cell-based
Protocol: as §1
(§3) One loopful of an overnight culture of each test strain in Trypticase-soy broth ([…]) was streaked on heart infusion agar (HI-agar) containing-graded concentrations of antibiotics, and the minimal inhibitory concentration (MIC) was expressed in terms of μg/ml. after incubation at 37° C. for 20 hours.

Serratia marcesens 4 [4] = experiment: MIC of strain used in the mouse infection test; format: cell-based; settings: Serratia, 4, 20 h
Protocol: as §1, §3

Escherichia coli 100 [5] = experiment: Protecting effect against experimental infections in mice; format: in vivo, Male ICR strain mice; settings: challenge 3.5 × 10^4 cells/mouse i.p.; s.c. one hour after challenge; one week
Protocol: (§4) Male ICR strain mice aged 4 weeks, each weighing 20-23 g were used in groups of 8 mice. The test bacteria were cultured overnight at 37° C. on HI-agar and then suspended in 2.5-5% mucin solution to obtain the suspension corresponding to each challenge cells. Mice were inoculated intraperitoneally with 0.5 ml of the suspension. A solution containing each test compounds was given subcutaneously to the mice in various dosage one hour after challenge. The ED50 values were calculated from the number of surviving mice for each dosage after one week of observation.

Serratia marcesens 4 [6] = experiment: as above; format: in vivo, Male ICR strain mice; settings: challenge 1.0 × 10^6 cells/mouse i.p.; s.c. one hour after challenge; one week
Protocol: as §4

Escherichia coli 29 [7] = experiment: MIC of strain used in the mouse infection test; format: cell-based; settings: Escherichia coli, 29, 20 h
Protocol: as §1, §3

Escherichia coli 29 [8] = experiment: Protecting effect against experimental infections in mice; format: in vivo, Male ICR strain mice; settings: s.c. one hour after challenge, one week
Protocol: as §4

Proteus vulgaris 1 = experiment: In vitro antibacterial activity, two-fold agar-plate dilution method; format: cell-based; settings: HI-agar, 37° C., 20 hours
Protocol: as §1, §2

[9] = tested on: Bacillus subtilis ATCC 6633; experiment: as above; format: cell-based; settings: ATCC6633, HI-agar, 37° C., 20 hours
Protocol: as §1, §2
(§5) One loopful of an overnight culture of each test strain in Trypticase-soy broth (10^8 viable cells per ml.) was streaked on heart infusion agar (HI-agar) containing graded concentrations of test compounds, and the minimal inhibitory concentration (MIC) was expressed in terms of μg/ml. after incubation at 37° C. for 20 hours.

[10] = tested on: Proteus vulgaris IAM-1025; experiment: as above; format: cell-based; settings: IAM1025, HI-agar, 37° C., 20 hours
Protocol: as §1, §2
One loopful of an overnight culture of each test strain in Trypticase-soy broth (10^8 viable cells per ml.) was streaked on heart infusion agar (HI-agar) containing graded concentration of test compounds, and the minimal inhibitory concentration (MIC) was expressed in terms of μg/ml after incubation at 37° C. for 20 hours.

Acute toxicity in mice = format: in vivo, ICR strain mice; settings: 2 g intravenously; 10 mice; one week observation
Protocol: The same strain mice as aforesaid protecting test against experimental infections were used in groups of 10 mice. Test compound (8) (2 g) was administered intravenously to said mice.

[11] = tested on: Pseudomonas aeruginosa NCTC-10490; experiment: In vitro antibacterial activity, two-fold agar-plate dilution method; format: cell-based; settings: NCTC10490, HI-agar, 37° C., 20 hours
Protocol: as §1, §5

[12] = Klebsiella pneumoniae 417, HI-agar, 37° C., 20 hours, read-out: MIC
[13] = challenge 6 × 10^6 cells/mouse i.p.

SMILES | MIC [1] [µg/mL] | MIC [2, 12] [µg/mL] | MIC (Proteus mirabilis 525) [µg/mL] | further results
CO/N=C(\C(=O)NC1C(=O)N2C(C(=O)O)=C(CSc3nncn3C)CSC12)c1csc(N)n1 (stereo not shown) [(17)] | 0.2 (≈ 0.392 µM) | 0.2 (≈ 0.392 µM) | 0.39 (≈ 0.764 µM) | –
CO/N=C(/C(=O)NC1C(=O)N2C(C(=O)O)=C(CSc3nncs3)CSC12)c1csc(NC=O)n1 (stereo not shown) [(11)] | 12.5 (≈ 23.1 µM) | 3.13 (≈ 5.78 µM) | 3.13 (≈ 5.78 µM) | –
CO/N=C(\C(=O)N[C@@H]1C(=O)N2C(C(=O)O)=C(COC(N)=O)CS[C@H]12)c1ccco1 [Cefuroxime, reference compound] | – | – | – | MIC of used strain (Escherichia coli 100 [3]; 10^6 viable cells/ml): 12.5 µg/mL; MIC (Escherichia coli 100 [3]; 20 h, 10^8 viable cells/ml): 12.5 µg/mL; MIC (Serratia marcesens 4 [4]; 10^6 viable cells/ml): 50 µg/mL; MIC (Serratia marcesens 4 [4]; 10^8 viable cells/ml): 400 µg/mL; ED50 (S.C.) (Escherichia coli 100 [5]): 1.158 mg/mouse; ED50 (S.C.) (Serratia marcesens 4 [6]): 4.329 mg/mouse
CO/N=C(/C(=O)NC1C(=O)N2C(C(=O)O)=C(CSc3nnnn3C)CSC12)c1cccc(O)c1 (stereo not shown) [(3)] | 50 (≈ 98.9 µM) | 6.25 (≈ 12.4 µM) | 25 (≈ 49.5 µM) | –
CC(=O)OCC1=C(C(=O)O)N2C(=O)C(NC(=O)Cc3cccs3)C2SC1 (stereo not shown) [CET, 7(2-Thienyl)acetamidocephalosporanic acid, reference compound] | – | – | – | MIC (Escherichia coli 29 [7]; 10^6 viable cells/ml): 3.13 µg/mL; MIC (Escherichia coli 29 [7]; 10^8 viable cells/ml): 12.5 µg/mL; ED50 (S.C.) (Escherichia coli 29 [8]; [13]): 1.402 mg/mouse
CC(C)O/N=C(\C(=O)NC1C(=O)N2C(C(=O)O)=C(COC(N)=O)CSC12)c1csc(N)n1 (stereo not shown) [(20)] | – | – | – | MIC (Proteus vulgaris 1): 0.2 µg/mL (≈ 0.413 µM); MIC [9]: 1.56 µg/mL (≈ 3.22 µM); MIC [10]: 0.2 µg/mL (≈ 0.413 µM)
CO/N=C(\C(=O)NC1C(=O)N2C(C(=O)O)=C(CSc3nc(C)ns3)CSC12)c1csc(N)n1 (stereo not shown) [Test Compound (3), 7-[2-Methoxyimino-2-(2-aminothiazol-4-yl)acetamido]-3-(3-methyl-1,2,4-thiadiazol-5-yl)thiomethyl-3-cephem-4-carboxylic acid] | – | – | – | MIC [9]: 1.56 µg/mL (≈ 2.96 µM)
C=CCn1nnnc1SCC1=C(C(=O)O)N2C(=O)C(NC(=O)/C(=N\OC(C)C)c3csc(N)n3)C2SC1 (stereo not shown) [(21)] | – | – | – | MIC (Proteus vulgaris 1): 0.78 µg/mL (≈ 1.38 µM); MIC [9]: 0.78 µg/mL (≈ 1.38 µM); MIC [10]: 0.78 µg/mL (≈ 1.38 µM)
C#CCO/N=C(\C(=O)NC1C(=O)N2C(C(=O)O)=C(COC(C)=O)CSC12)c1csc(N)n1 (stereo not shown) [(19)] | – | – | – | MIC (Proteus vulgaris 1): 0.78 µg/mL (≈ 1.63 µM); MIC [9]: 3.13 µg/mL (≈ 6.53 µM); MIC [10]: 0.78 µg/mL (≈ 1.63 µM)
CO/N=C(\C(=O)NC1C(=O)N2C(C(=O)O)=C(CSc3nncs3)CSC12)c1csc(NC=O)n1 (stereo not shown) [(10)] | 0.78 (≈ 1.44 µM) | 1.56 (≈ 2.88 µM) | 0.39 (≈ 0.72 µM) | –
CO/N=C(\C(=O)NC1C(=O)N2C(C(=O)O)=C(CO)CSC12)c1csc(N)n1 (stereo not shown) [(15)] | 0.78 (≈ 1.89 µM) | 0.05 (≈ 0.121 µM) | 0.1 (≈ 0.242 µM) | –
CO/N=C(/C(=O)NC1C(=O)N2C(C(=O)O)=C(COC(C)=O)CSC12)c1csc(N)n1 (stereo not shown) [(9)] | 3.13 (≈ 6.87 µM) | – | 0.78 (≈ 1.71 µM) | MIC ([2]; Klebsiella pneumoniae, 417, 20 h): 1.56 µg/mL (≈ 3.43 µM)
CO/N=C(\C(=O)NC1C(=O)N2C(C(=O)O)=C(COC(C)=O)CSC12)c1csc(N)n1 (stereo not shown) [(8)] | 0.1 (≈ 0.22 µM) | 0.1 (≈ 0.22 µM) | 0.05 (≈ 0.11 µM) | MIC (Escherichia coli 29 [7]; 10^6 viable cells/ml): ≤ 0.03 µg/mL; MIC (Escherichia coli 29 [7]; 10^8 viable cells/ml): 0.2 µg/mL; ED50 (S.C.) (Escherichia coli 29 [8]; [13]): < 0.005 mg/mouse; Acute toxicity (survival, disorder) (Acute toxicity in mice): All mice survived without showing any disorder
CO/N=C(/C(=O)NC1C(=O)N2C(C(=O)O)=C(CSc3nnnn3C)CSC12)c1csc(N)n1 (stereo not shown) [(7)] | 12.5 (≈ 24.4 µM) | 6.25 (≈ 12.2 µM) | 3.13 (≈ 6.12 µM) | –
CO/N=C(\C(=O)NC1C(=O)N2C(C(=O)O)=C(CSc3nnc(C)s3)CSC12)c1csc(N)n1 (stereo not shown) [(16)] | 0.39 (≈ 0.739 µM) | 0.1 (≈ 0.19 µM) | 0.39 (≈ 0.739 µM) | –
CO/N=C(\C(=O)NC1C(=O)N2C(C(=O)O)=C(CSc3nncs3)CSC12)c1csc(N)n1 (stereo not shown) [(14)] | 0.1 (≈ 0.195 µM) | 0.2 (≈ 0.389 µM) | 0.1 (≈ 0.195 µM) | MIC (Escherichia coli 29 [7]; 10^6 viable cells/ml): ≤ 0.03 µg/mL; MIC (Escherichia coli 29 [7]; 10^8 viable cells/ml): ≤ 0.03 µg/mL; ED50 (S.C.) (Escherichia coli 29 [8]; [13]): < 0.005 mg/mouse
C=CCO/N=C(\C(=O)NC1C(=O)N2C(C(=O)O)=C(CSc3nnnn3CC=C)CSC12)c1csc(N)n1 (stereo not shown) [Test Compound (3), 7-[2-Allyloxyimino-2-(2-aminothiazol-4-yl)acetamido]-3-(1-allyl-1H-tetrazol-5-yl)thiomethyl-3-cephem-4-carboxylic acid] | – | – | – | MIC [9]: 0.78 µg/mL (≈ 1.38 µM); MIC [11]: 6.25 µg/mL (≈ 11.1 µM)
CO/N=C(\C(=O)NC1C(=O)N2C(C(=O)O)=C(COC(N)=O)CSC12)c1csc(N)n1 (stereo not shown) [(13)] | 1.56 (≈ 3.42 µM) | 0.5 (≈ 1.1 µM) | 0.025 (≈ 0.0548 µM) | MIC (Serratia marcesens 4 [4]; 10^6 viable cells/ml): ≤ 0.025 µg/mL; MIC (Serratia marcesens 4 [4]; 10^8 viable cells/ml): 25 µg/mL; ED50 (S.C.) (Serratia marcesens 4 [6]): < 0.156 mg/mouse
CO/N=C(\C(=O)NC1C(=O)N2C(C(=O)O)=C(COC(C)=O)CSC12)c1csc(NC=O)n1 (stereo not shown) [(12)] | 1.56 (≈ 3.23 µM) | 1.56 (≈ 3.23 µM) | 0.78 (≈ 1.61 µM) | MIC (Serratia marcesens 4 [4]; 10^6 viable cells/ml): 6.25 µg/mL; MIC (Serratia marcesens 4 [4]; 10^8 viable cells/ml): 200 µg/mL; ED50 (S.C.) (Serratia marcesens 4 [6]): 0.018 mg/mouse
CO/N=C(\C(=O)NC1C(=O)N2C(C(=O)O)=C(COC(N)=O)CSC12)c1csc(NC(=O)C(F)(F)F)n1 (stereo not shown) [(18)] | 3.13 (≈ 5.67 µM) | 0.05 (≈ 0.0905 µM) | 0.025 (≈ 0.0453 µM) | –
Cc1nnc(SCC2=C(C(=O)O)N3C(=O)C(NC(=O)Cn4cnnn4)C3SC2)s1 (stereo not shown) [CEZ Na, reference compound] | – | – | – | MIC (Escherichia coli 29 [7]; 10^6 viable cells/ml): 0.78 µg/mL; MIC (Escherichia coli 29 [7]; 10^8 viable cells/ml): 3.13 µg/mL; ED50 (S.C.) (Escherichia coli 29 [8]; challenge 5.5 × 10^5 cells/mouse i.p.): 0.182 mg/mouse

Reference: patent publication US4493833A, “Syn-isomer of 3,7-disubstituted-3-cephem-4-carboxylic acid compounds” (Fujisawa Pharmaceutical Co., Ltd., priority 1976, dated 1985)
